# Values of other authors in PMC8991498 (Food Chemistry: Molecular Sciences, 2021).
# Test system: Caco-2 cell monolayers
Absorption of β-casein fragment (ref Regazzo et al. (2010)),Sequence,Passage of RAP through Caco-2 cell monolayers (ref Xu et al. (2017))
could be absorbed mainly by transcytosis,YQEPVLGPVRGPFPIIV [β-casein fragment],
,YWDHNNPQIR [RAP],a percentage of this peptide managed to pass intact through the monolayer
